The target in test [1] is T1, KCNQ 2/3 channels (HEK293 cells stably expressing human KCNQ2 and KCNQ3 subunits) (Homo sapiens, UniProt O43525+O43526).
T1 construct: expressed in transfected cells; host or cells: HEK293
Put plainly: KCNQ2/3 channel activation, thallium flux FLIPR assay with BTC-AM dye. The note with it: for Emax: HEK293, maximum response relative to the response produced by 10 μM retigabine (set at 100%), read-out: Max. %; for EC50: HEK293 cells expressing human KCNQ2 and KCNQ3, thallium flux, FLIPR. The test is classed as cell-based. The method, boiled down:
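HEK293 cells stably expressing human KCNQ2/KCNQ3 were loaded with BTC-AM (3 μg/mL, 2 h, RT) and preincubated with compound for 4 min in pH 7.3 gluconate buffer containing 0.1 mM ouabain. Flux was triggered by 6 mM TlNO3/10 mM K2SO4 and read for 3 min; EC50 came from summed responses over basal, with maximum relative to 10 μM retigabine (100%).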

The subject of test [2] is Adult male Sprague-Dawley rats. Kind of test: Spinal nerve ligation (SNL) model of neuropathic pain. As to conditions: rat SNL model (L5/L6 ligation), about 30 mg/kg, tactile allodynia. The test is classed as in vivo. The source says: Adult male Sprague-Dawley rats (250-300 g body weight, Charles River Laboratories, Portage, Mich.) were used. Animal handling and experimental protocols were approved by the Institutional Animal Care and Use Committee (IACUC) at Abbott Laboratories. For all surgical procedures, animals were maintained under isoflurane anesthesia (4-5% to induce, 1-3% to maintain), and the incision sites were sterilized using a 10% povidone-iodine solution prior to and after surgeries.
Tactile (mechanical) allodynia was measured using calibrated von Frey filaments (Stoelting, Wood Dale, Ill.) as described in Chaplan, S. R., F. W. Bach, J. M. Pogrel, J. M. Chung and T. L. Yaksh, 1994, Quantitative assessment of tactile allodynia in the rat paw, J. Neurosci. Methods, 53, 55. Rats were placed into inverted individual plastic containers (20×12.5×20 cm) on top of a suspended wire mesh grid, and acclimated to the test chambers for 20 minutes. The von Frey filaments were presented perpendicularly to the plantar surface of the selected hind paw, and then held in this position for approximately 8 sec with enough force to cause a slight bend in the filament. Positive responses included an abrupt withdrawal of the hind paw from the stimulus, or flinching behavior immediately following removal of the stimulus. A 50% withdrawal threshold was determined using an up-down procedure (Dixon, W. J., 1980, Efficient analysis of experimental observations, Ann. Rev. Pharmacol. Toxicol., 20, 441). […] Tactile allodynia thresholds were also assessed in several control groups, including naive, sham-operated, and saline infused animals as well as in the contralateral paws of nerve-injured rats. To evaluate the anti-nociceptive effects, animals were administered vehicle or test compound and tactile allodynia was assessed 30 minutes after i.p. administration.
A model of spinal nerve ligation-induced (SNL model) neuropathic pain as originally described by Kim and Chung (Kim, S. H. and J. M. Chung, 1992, Pain 50, 355) was used to test a compound of the present application The left L5 and L6 spinal nerves of the rat were isolated adjacent to the vertebral column and tightly ligated with a 5-0 silk suture distal to the DRG, and care taken to avoid injury of the L4 spinal nerve. The same procedure was performed on Sham rats, but without nerve ligation. All animals were allowed to recover for at least one week and not more than three weeks prior to assessment of tactile allodynia.

The record followed here is US8629143B2, “Potassium channel modulators” (AbbVie Inc., priority 2009, dated 2014).

The term EC50 denotes the midpoint of the concentration-response curve. Consider `CC1(C)[C@@H]2C[C@H]1[C@H](CC(=O)Nn1nc(-c3ccc(Cl)cc3)c3ccccc3c1=O)C(F)(F)C2` [Example 88, N-[4-(4-chlorophenyl)-1-oxophthalazin-2(1H)-yl]-2-[(1S,2S,5R)-3,3-difluoro-6,6-dimethylbicyclo[3.1.1]hept-2-yl]acetamide], for which, in test [1], the Emax was found to be 60% and the EC50 fell in the range of 500 to 1000 nM. The “change in paw withdrawal latency versus vehicle” value (from here on “change”) in test [2] was “statistically significant change”.

For `O=C(Cc1ccc(Cl)cc1)Nn1nc(-c2ccc(Cl)cc2)c2ccccc2c1=O` [Example 117, 2-(4-chlorophenyl)-N-[4-(4-chlorophenyl)-1-oxophthalazin-2(1H)-yl]acetamide], in test [1], the Emax was found to be 120% and the EC50 was 100 to 500 nM. Moreover, in test [2], the “change” value is “statistically significant change”.

Consider `O=C(C[C@H]1C[C@@H]2CC[C@H]1C2)Nn1nc(-c2ccc(C(F)(F)F)cc2)c2ccccc2c1=O` (racemic) [Example 150, (±)-2-(exo-bicyclo[2.2.1]hept-2-yl)-N-{1-oxo-4-[4-(trifluoromethyl)phenyl]phthalazin-2(1H)-yl}acetamide], for which, in test [1], the Emax turned out to be 138% and the EC50 was less than 100 nM. Further, the “change” value in test [2] is reported as “statistically significant change”.

As to `O=C(Cc1ccccc1)Nn1nc(-c2ccc(Cl)cc2)c2ccccc2c1=O` [Example 91, N-[4-(4-chlorophenyl)-1-oxophthalazin-2(1H)-yl]-2-phenylacetamide], in test [1], the Emax was determined as 101% and the EC50 was in the range of 100 to 500 nM. Also, the “change” value in test [2] is listed as “statistically significant change”.

As to `O=C(CC12CC3CC(CC(C3)C1)C2)Nn1nc(Cl)c2ccccc2c1=O` [Example 20, 2-(1-adamantyl)-N-(4-chloro-1-oxophthalazin-2(1H)-yl)acetamide], in test [1], the Emax is 123% and the EC50 lay in the range of 100 to 500 nM.

For `CC(C)(C)c1nn(NC(=O)CC2CC3CCC2C3)c(=O)c2ccccc12` (racemic) [Example 63, (±)-2-(exo-bicyclo[2.2.1]heptan-2-yl)-N-(4-tert-butyl-1-oxophthalazin-2(1H)-yl)acetamide], in test [1], the Emax was 160% and the EC50 was less than 100 nM.

With `O=C(Cc1cc(F)cc(F)c1)Nn1nc(-c2ccc(F)cc2)c2ccccc2c1=O` [Example 133, 2-(3,5-difluorophenyl)-N-[4-(4-fluorophenyl)-1-oxophthalazin-2(1H)-yl]acetamide], in test [1], the Emax amounted to 144% and the EC50 was in the range of 100 to 500 nM.

On to `CN(C)c1ccc(CC(=O)Nn2nc(-c3ccc(Cl)cc3)c3ccccc3c2=O)cc1` [Example 101, N-[4-(4-chlorophenyl)-1-oxophthalazin-2(1H)-yl]-2-[4-(dimethylamino)phenyl]acetamide], for which, in test [1], the Emax amounted to 57% and the EC50 lay in the range of 1000 to 10000 nM.

With `CC(C)c1nn(NC(=O)CC23CC4CC(C)(CC(C)(C4)C2)C3)c(=O)c2ccccc12` [Example 34, 2-[3,5-dimethyl-1-adamantyl]-N-(4-isopropyl-1-oxophthalazin-2(1H)-yl)acetamide], in test [1], the Emax was 184% and the EC50 was in the range of 100 to 500 nM.

For the compound `O=C(CC1CC2CCC1C2)Nn1nc(-c2ccc(Cl)cc2)c2ccccc2c1=O` (racemic) [Example 113, (±)-2-(exo-bicyclo[2.2.1]hept-2-yl)-N-[4-(4-chlorophenyl)-1-oxophthalazin-2(1H)-yl]acetamide], in test [1], the Emax was 154% and the half-maximal effective concentration (EC50) was less than 100 nM.

For `Cc1ccc(-c2nn(NC(=O)C[C@@H]3C[C@@H]4C=C[C@H]3C4)c(=O)c3ccccc23)c(C)c1` [Example 159, 2-[(1S,2S,4S)-bicyclo[2.2.1]hept-5-en-2-yl]-N-[4-(2,4-dimethylphenyl)-1-oxophthalazin-2(1H)-yl]acetamide], in test [1], the Emax was 156% and the EC50 fell in the range of 100 to 500 nM.

Turning to `O=C(Cc1cccs1)Nn1nc(C(F)(F)F)c2ccccc2c1=O` [Example 54, N-[1-oxo-4-(trifluoromethyl)phthalazin-2(1H)-yl]-2-(2-thienyl)acetamide], in test [1], the Emax worked out at 84% and the concentration giving a half-maximal response (EC50) lay within 1000 to 10000 nM.

As for `CC(C)c1nn(NC(=O)Cc2cc(F)cc(F)c2)c(=O)c2ccccc12` [Example 5, 2-(3,5-difluorophenyl)-N-(4-isopropyl-1-oxophthalazin-2(1H)-yl)acetamide], in test [1], the Emax is 136% and the EC50 lay in the range of 100 to 500 nM.

Consider `CN(C)C(=O)c1ccc(-c2nn(NC(=O)CC3CC4CCC3C4)c(=O)c3ccccc23)cc1` (racemic) [Example 81, (±)-4-(3-{[exo-bicyclo[2.2.1]hept-2-ylacetyl]amino}-4-oxo-3,4-dihydrophthalazin-1-yl)-N,N-dimethylbenzamide], for which, in test [1], the Emax is 50% and the EC50 was greater than 10000 nM.

`O=C(Cc1cc(F)cc(F)c1)Nn1nc(Cc2ccccc2)c2ccccc2c1=O` [Example 143, N-(4-benzyl-1-oxophthalazin-2(1H)-yl)-2-(3,5-difluorophenyl)acetamide]: in test [1], the Emax was determined as 128% and the EC50 was less than 100 nM.

Regarding `O=C(CC1CC2CCC1C2)Nn1nc(C2CCCC2)c2ccccc2c1=O` (racemic) [Example 71, (±)-2-(exo-bicyclo[2.2.1]heptan-2-yl)-N-(4-cyclopentyl-1-oxophthalazin-2(1H)-yl)acetamide], in test [1], the Emax came to 162% and the EC50 is less than 100 nM.

Regarding `COc1ccc(-c2nn(NC(=O)Cc3cc(F)cc(F)c3)c(=O)c3cc(Br)ccc23)cc1` [Example 177, N-[7-bromo-4-(4-methoxyphenyl)-1-oxophthalazin-2(1H)-yl]-2-(3,5-difluorophenyl)acetamide], in test [1], the Emax stood at 48% and the EC50 is greater than 10000 nM.

`CS(=O)(=O)c1ccc(CC(=O)Nn2nc(-c3ccc(Cl)cc3)c3ccccc3c2=O)cc1` [Example 111, N-[4-(4-chlorophenyl)-1-oxophthalazin-2(1H)-yl]-2-[4-(methylsulfonyl)phenyl]acetamide]: in test [1], the Emax was 25% and the EC50 was greater than 10000 nM.

For the compound `O=C(CC1CC2CCC1C2)Nn1nc(C2CCCCC2)c2ccccc2c1=O` (racemic) [Example 74, (±)-2-(exo-bicyclo[2.2.1]heptan-2-yl)-N-(4-cyclohexyl-1-oxophthalazin-2(1H)-yl)acetamide], in test [1], the Emax is 165% and the EC50 is less than 100 nM.

As to `O=C(CC12CC3CC(CC(C3)C1)C2)Nn1nc(-c2ccccc2)c2ccsc2c1=O` [Example 29, 2-(1-adamantyl)-N-(7-oxo-4-phenylthieno[2,3-d]pyridazin-6(7H)-yl)acetamide], in test [1], the Emax was 173% and the EC50 is 100 to 500 nM.

As to `CC(C)c1nn(NC(=O)CC23CC4CC(CC(C4)C2)C3)c(=O)c2c1C1CCC2CC1` [Example 8, 2-(1-adamantyl)-N-(4-isopropyl-1-oxo-5,6,7,8-tetrahydro-5,8-ethanophthalazin-2(1H)-yl)acetamide], in test [1], the Emax stood at 79% and the EC50 fell in the range of 1000 to 10000 nM.

Consider `O=C(CC12CC3CC(CC(Br)(C3)C1)C2)Nn1nc(-c2ccccc2)c2ccsc2c1=O` [Example 178, 2-(3-bromoadamantan-1-yl)-N-(7-oxo-4-phenylthieno[2,3-d]pyridazin-6(7H)-yl)acetamide], for which, in test [1], the Emax was 56% and the half-maximal effective concentration (EC50) is greater than 10000 nM.

For the compound `COc1ccc(-c2nn(NC(=O)CC34CC5CC(CC(C5)C3)C4)c(=O)c3cc(Br)ccc23)cc1` [Example 174, 2-(adamantan-1-yl)-N-[7-bromo-4-(4-methoxyphenyl)-1-oxophthalazin-2(1H)-yl]acetamide], in test [1], the Emax came to 20% and the EC50 was greater than 10000 nM.

Regarding `O=C(Cc1ccsc1)Nn1nc(C(F)(F)F)c2ccccc2c1=O` [Example 53, N-[1-oxo-4-(trifluoromethyl)phthalazin-2(1H)-yl]-2-(3-thienyl)acetamide], in test [1], the Emax amounted to 61% and the EC50 lay within 1000 to 10000 nM.

Consider `O=C(Nn1nc(-c2ccc(Cl)cc2)c2ccccc2c1=O)C(F)c1ccccc1` (stereo not drawn) [Example 90, N-[4-(4-chlorophenyl)-1-oxophthalazin-2(1H)-yl]-2-fluoro-2-phenylacetamide], for which, in test [1], the Emax amounted to 1% and the EC50 is greater than 10000 nM.
